The nature of series [1]: Antitumor activity against mouse B16-F1 cells xenografted in C57/BL mouse assessed as reduction of tumor growth at 60 mg/kg, ip administered 7 days after tumor inoculation qd for 14 days. Format: functional. On the set-up: scale not given: the % may be the effect or the level left. Particulars: route intraperitoneal.
In series [2] the test system is Mus musculus. Kind of series: Toxicity in mouse B16-F1 cells xenografted C57/BL mouse assessed as reduction of body weight at 60 mg/kg, ip administered 7 days after tumor inoculation qd for 14 days. Format: organism-based. Also on record: dose 60 mg/kg, route intraperitoneal. Particulars: in vivo.
A short description of series [3]: Cytotoxicity against human multidrug-resistant MDA-MB-435/LCCMDR1 cells after 48 hrs by sulforhodamine B assay. Type of series: functional, cell-based. Particulars: MDA-MB-435, 48 h.
Another series concerns A-375. Kind of series: Cytotoxicity against human A375 cells after 48 hrs by sulforhodamine B assay. Format: functional, cell-based. Particulars: Homo sapiens, A-375, 48 h. (In general: The SRB assay estimates cell density from bound dye.)
Series [4] is described as follows: Cytotoxicity against mouse B16-F1 cells after 48 hrs by sulforhodamine B assay. Format: functional, cell-based. Conditions: Mus musculus, B16-F1, 48 h.
The nature of series [5]: Cytotoxicity against human WM164 cells after 48 hrs by sulforhodamine B assay. Type of series: functional, cell-based. Conditions: Homo sapiens, WM164, 48 h.
Another series has as its system LNCaP. Kind of series: Cytotoxicity against human LNCAP cells after 48 hrs by sulforhodamine B assay. Type of series: functional, cell-based.
For another series, the system named is PPC-1. Kind of series: Cytotoxicity against human PPC1 cells after 48 hrs by sulforhodamine B assay. Format: functional, cell-based. Conditions: Homo sapiens, PPC-1, 48 h.
In the next series the test system is MDA-MB-435. The series is described as follows: cells. Conditions: Homo sapiens, MDA-MB-435, 48 h.
A further series has as its system PC-3. Kind of series: cells. Particulars: Homo sapiens, PC-3, 48 h.
The next series relates to DU-145. The series is described as follows: cells. Conditions: Homo sapiens, DU-145, 48 h.
Series [6] deals with Mus musculus. Kind of series: Toxicity in mouse B16-F1 cells xenografted C57/BL mouse assessed as reduction of body weight at 10 mg/kg, ip administered 7 days after tumor inoculation qd for 14 days. Format: organism-based. On the set-up: dose 10 mg/kg, route intraperitoneal. Particulars: in vivo.
In series [7] the test system is Mus musculus. The series is described as follows: Toxicity in mouse B16-F1 cells xenografted C57/BL mouse assessed as reduction of body weight at 30 mg/kg, ip administered 7 days after tumor inoculation qd for 14 days. Format: organism-based. Also on record: dose 30 mg/kg, route intraperitoneal. Conditions: in vivo.
A short description of series [8]: Aqueous solubility of the compound in buffer at pH 7 after 24 hrs by shake-flask method. Format: physicochemical.
Series [9] can be described thus: Aqueous solubility of the compound in water after 24 hrs by shake-flask method. Format: physicochemical.

In brackets after ≈: the same amount, converted by molar mass.

Description for DU-145: Cytotoxicity against human DU145 cells after 48 hrs by sulforhodamine B assay
Description for MDA-MB-435: Cytotoxicity against human MDA-MB-435 cells after 48 hrs by sulforhodamine B assay
Description for PC-3: Cytotoxicity against human PC3 cells after 48 hrs by sulforhodamine B assay

Turning to `CN(C)/N=N/c1[nH]cnc1C(N)=O` [DACARBAZINE], the figures for the Activity (in series [1]; in the series on Mus musculus [2]) were 51% and “Non-toxic”, respectively.
Take `COc1ccc(-c2ncc(C(=O)c3ccc(F)cc3)n2S(=O)(=O)c2ccccc2)cc1`: the IC50 is 0.038 µM in [3]; 0.036 µM with A-375; 0.071 µM in [4]; 0.043 µM in series [5]; 0.031 µM in the series on LNCaP; 0.032 µM with PPC-1. Further, the IC50 with MDA-MB-435 came out at 0.03 µM; in the series on PC-3, 0.033 µM; in the series on DU-145, 0.052 µM.
Turning to `COc1ccc(-c2nc(C(=O)c3ccc(F)cc3)c[nH]2)cc1`, the Activity entry in the series with Mus musculus [6] and with Mus musculus [7] was “Non-toxic” throughout. In the series on MDA-MB-435, 0.03 µM corresponded to half-maximal inhibition (IC50).
On to `COc1cc(C(=O)c2c[nH]c(-c3ccccc3)n2)cc(OC)c1OC`, for which the IC50 in the series with A-375 worked out at 0.16 µM; in series [4] it was 0.12 µM; in [5], 0.1 µM; with LNCaP it was 0.15 µM; with PPC-1 it was 0.13 µM; with PC-3 it was 0.29 µM. The IC50 in the series with DU-145 was 0.2 µM.
With `O=[N+]([O-])c1ccc(-c2nccn2S(=O)(=O)c2ccccc2)cc1`, the IC50 (with A-375; in [4]; in series [5]; in the series on LNCaP; in the series with PPC-1; with PC-3) was greater than 10 µM throughout. For the same compound, the IC50 with DU-145 is greater than 10 µM.
For `O=S(=O)(c1ccccc1)n1ccnc1-c1ccc(OCc2ccccc2)cc1`, the IC50 (in the series with A-375; in [4]; in series [5]; in the series with LNCaP; in the series with PPC-1; in the series on PC-3) was greater than 10 µM in each case. In the series with DU-145, this compound displayed an IC50 greater than 10 µM.
`COc1ccc(C(=O)c2cnc(-c3ccccc3)n2S(=O)(=O)c2ccccc2)cc1`: the half-inhibitory concentration (IC50) (in the series with A-375; in [4]; in series [5]; with LNCaP; with PPC-1; in the series with PC-3) was greater than 10 µM in each case. The same compound registered an IC50 with DU-145 greater than 10 µM.
Take `CN(C)c1ccc(-c2ncc(C(=O)c3ccc(F)cc3)n2S(=O)(=O)c2ccccc2)cc1`: the IC50 in the series with A-375 stood at 0.055 µM; in [4], 0.242 µM; in series [5] it was 0.056 µM; in the series on LNCaP, 0.056 µM; with PPC-1, 0.048 µM; with PC-3, 0.083 µM. Also, in the series with DU-145, the IC50 came out at 0.074 µM.
Turning to `O=C(c1ccc(F)cc1)c1cnc(-c2ccccc2C(F)(F)F)n1S(=O)(=O)c1ccccc1`, the IC50 (in the series on A-375; in series [4]; in series [5]; in the series on LNCaP; in the series with PPC-1; in the series on PC-3) was greater than 10 µM throughout. The compound also showed an IC50 in the series with DU-145 greater than 10 µM.
As for `Cc1ccc(C(=O)c2cnc(-c3ccccc3)n2S(=O)(=O)c2ccccc2)cc1`, the IC50 (with A-375; in series [4]; in series [5]; in the series with LNCaP; with PPC-1; with PC-3) was greater than 10 µM in each case. The compound also registered a concentration for half-maximal inhibition (IC50) in the series on DU-145 greater than 10 µM.
With `COc1cc(C(=O)c2c[nH]c(-c3ccc(N(C)C)cc3)n2)cc(OC)c1OC`, the IC50 with A-375 was found to be 0.082 µM; in series [4], 0.361 µM; in [5], 0.08 µM; in the series with LNCaP it was 0.058 µM; with PPC-1 it was 0.067 µM; in the series on PC-3, 0.092 µM. The same compound yielded an IC50 in the series with DU-145 of 0.095 µM. In addition, the solubility (thermodynamic) at 24 h in [8] was determined as 48.9 µg/mL (≈ 128 µM); in series [9] it was 11.3 µg/mL (≈ 29.6 µM).
Regarding `COc1cc(C(=O)c2cnc(-c3ccccc3C(F)(F)F)n2S(=O)(=O)c2ccccc2)cc(OC)c1OC`, the concentration for half-maximal inhibition (IC50) (in the series on A-375; in series [4]; in [5]; in the series on LNCaP; in the series with PPC-1; in the series on PC-3) was greater than 10 µM throughout. In the series on DU-145, this compound returned an IC50 greater than 10 µM.
Consider `COc1cc(C(=O)c2csc(-c3ccc(N(C)C)cc3)n2)cc(OC)c1OC`, for which the thermodynamic solubility at 24 h in series [8] is 0.909 µg/mL (≈ 2.28 µM); in [9], 0.833 µg/mL (≈ 2.09 µM).
In the case of `COc1cccc(C(=O)c2c[nH]c(-c3ccccc3)n2)c1`, the IC50 (with A-375; in [4]; in series [5]; in the series with LNCaP; in the series with PPC-1; with PC-3) was greater than 10 µM each time. The compound also showed an IC50 with DU-145 greater than 10 µM.
In the case of `Cc1cccc(C(=O)c2c[nH]c(-c3ccccc3)n2)c1`, the IC50 (with A-375; in series [4]; in series [5]; in the series with LNCaP; in the series with PPC-1; in the series on PC-3) was greater than 10 µM each time. For the same compound, in the series on DU-145, the IC50 was greater than 10 µM.
Consider `O=C(c1cc(O)c(O)c(O)c1)c1c[nH]c(-c2cc(O)c(O)c(O)c2)n1`, for which the half-maximal inhibitory concentration (IC50) (in the series with A-375; in [4]; in series [5]; in the series with LNCaP; with PPC-1; with PC-3) was greater than 10 µM each time. The IC50 with DU-145 is greater than 10 µM.
For `Cc1ccc(-c2nc(C(=O)c3ccc(F)cc3)c[nH]2)cc1`, the concentration for half-maximal inhibition (IC50) is 0.142 µM in the series on A-375; 0.222 µM in series [4]; 0.156 µM in series [5]; 0.045 µM with LNCaP; 0.054 µM in the series with PPC-1; 0.065 µM with PC-3. In the series with DU-145, half-maximal inhibition (IC50) required 0.078 µM.
As to `O=C(c1cc(O)c(O)c(O)c1)c1c[nH]c(-c2ccc(Cl)cc2)n1`, the IC50 in the series on A-375 was 3.9 µM; in series [4] it was 1.81 µM; in series [5] it was 2.1 µM; in the series on LNCaP, 10 µM; in the series with PPC-1, greater than 10 µM; in the series with PC-3, 10 µM. For the same compound, in the series with DU-145, inhibition was half-maximal at 10 µM (IC50).
For the compound `O=C(c1ccc(F)cc1)c1cnc(-c2ccccc2)n1S(=O)(=O)c1ccccc1`, the IC50 turned out to be 0.63 µM with A-375; 0.946 µM in [4]; 0.596 µM in [5]; 0.573 µM in the series with LNCaP; 0.575 µM in the series with PPC-1; 2.23 µM in the series with PC-3. It took 0.846 µM to reach half-maximal inhibition with DU-145 (IC50).
For the compound `CC(=O)O[C@H]1C(=O)[C@@]2(C)[C@H]([C@H](OC(=O)c3ccccc3)[C@]3(O)C[C@H](OC(=O)[C@H](O)[C@@H](NC(=O)c4ccccc4)c4ccccc4)C(C)=C1C3(C)C)[C@]1(OC(C)=O)CO[C@@H]1C[C@@H]2O` [PACLITAXEL], the results for the solubility (thermodynamic) at 24 h in series [8] and in series [9] were 0.137 µg/mL (≈ 0.16 µM) and 0.021 µg/mL (≈ 0.0246 µM), respectively.
With `COc1cc(C(=O)c2c[nH]c(-c3cc(OC)c(OC)c(OC)c3)n2)cc(OC)c1OC`, the half-maximal inhibitory concentration (IC50) in the series on A-375 was 4.8 µM; in series [4], greater than 10 µM; in [5], greater than 10 µM; in the series on LNCaP it was greater than 10 µM; in the series with PPC-1, greater than 10 µM; in the series with PC-3, greater than 10 µM. Besides, the IC50 in the series with DU-145 was greater than 10 µM.
For the compound `COc1ccc(/C=C\c2cc(OC)c(OC)c(OC)c2)cc1O` [COMBRETASTATIN A4], the figures for the solubility (thermodynamic) at 24 h in series [8] and in series [9] were 1.04 µg/mL (≈ 3.29 µM) and 2.83 µg/mL (≈ 8.95 µM), respectively.
Turning to `O=C(c1cccc(F)c1)c1c[nH]c(-c2ccccc2)n1`, the IC50 (in the series with A-375; in series [4]; in [5]; with LNCaP; with PPC-1; in the series with PC-3) was greater than 10 µM in each case. The compound also registered an IC50 in the series with DU-145 greater than 10 µM.
On to `O=C(c1cc(O)c(O)c(O)c1)c1c[nH]c(-c2ccc(O)c(O)c2)n1`, for which the IC50 (with A-375; in series [4]; in series [5]; in the series on LNCaP; in the series with PPC-1; in the series with PC-3) was greater than 10 µM throughout. In the series on DU-145, this compound registered an IC50 greater than 10 µM.

Usually IC50 stands for the concentration that gives 50% inhibition. By thermodynamic solubility is commonly meant the concentration in solution at equilibrium with solid.
